Reference: publication PMC5354814, “In silico and in vitro drug screening identifies new therapeutic approaches for Ewing sarcoma” (Oncotarget, 2016)
Entries after “also recorded” stand apart in the source; their conditions may differ. Read-outs that look alike come from different tables or passages of the source.

Experiments:
[1] = Auranofin dose tolerance studies (maximum tolerated dose); type: in vivo, BALB/c mice
Text: These findings led us to develop and assess injectable (i.v. and i.p.) formulations of auranofin. By defining maximum tolerated dose (MTD) following i.v. and i.p. administration of solution and suspension formulations of auranofin, our intent was to evaluate auranofin alone and in combination with ganetespib at MTD in mouse xenograft studies using the more convenient i.p. route of administration. Following administration of the solution formulation of auranofin i.v. and i.p., the maximum tolerated dose was estimated at 1 mg/kg and 6 mg/kg, respectively. Following a single i.p. suspension dose of auranofin, the maximum tolerated dose was 16 mg/kg. This dose was reduced to 12 mg/kg and dose tolerance was evaluated after 5 daily doses of auranofin suspension i.p. to determine the effects of the accumulation of gold in the blood due to the slow elimination of gold. Based on the i.p. suspension dose tolerance studies, the auranofin suspension formulation and dose level of 12 mg/kg was selected for evaluation in xenograft mouse studies.
The auranofin dose tolerance and pharmacokinetics study protocols were approved by the KU-Lawrence Institutional Animal Care and Use Committee (KU-IACUC). Subchronic dose tolerance studies were conducted in BALB/c mice to support the design of EWS mouse xenograft studies. By establishing the Maximum Tolerated Dose (MTD), we defined the upper limit of doses selected for EWS mouse xenograft and in vivo pharmacokinetics studies. Mice received a single dose of auranofin solution and suspension administered by i.v. and i.p. routes of administration. Following a starting dose of 1 mg/kg, doses were escalated in subsequent mice until intolerable drug-related adverse effects were observed. MTD was defined as the maximum dose that was not associated dose-limiting adverse effects in mice. The MTD was confirmed in a group of 3 mice. Mice were continuously monitored for up to 4 hours post-dose.

[2] = Dissociation of auranofin in plasma, whole blood and simulated gastric fluid; type: in vitro ADME; details: unpublished results
[3] = cited from earlier work
[4] = cited from earlier work; remark: listed apart in the source
[5] = cited from earlier work; for tumors of the renal tubular epithelium: 12-month study, rats
Saccharomyces = test system: Saccharomyces; design: method as in ref 18, ref 19; details: cited from earlier work
[6] = design: method as in ref 18, ref 19; details: cited from earlier work
[7] = test system: human polymorphonuclear neutrophil; design: method as in ref 19 (a number printed in a supplementary file, which may have a reference list of its own: not looked up in the article's list); details: 0.1 - 1.0 µg auranofin/mL; cited from earlier work
natural killer cells = test system: natural killer cells; design: method as in ref 19 (a number printed in a supplementary file, which may have a reference list of its own: not looked up in the article's list); details: cited from earlier work
human monocytes = test system: human monocytes; design: method as in ref 19 (a number printed in a supplementary file, which may have a reference list of its own: not looked up in the article's list); details: 0.125 µg auranofin/mL; cited from earlier work
[8] = design: method as in ref 19 (a number printed in a supplementary file, which may have a reference list of its own: not looked up in the article's list); details: 5 and 10 µg gold/kg for 2 weeks; cited from earlier work
mouse spleen cells = test system: mouse spleen cells; design: method as in ref 19 (a number printed in a supplementary file, which may have a reference list of its own: not looked up in the article's list); details: 1 x 10^-4M and 1 x 10^-5M; cited from earlier work
[9] = design: method as in ref 19 (a number printed in a supplementary file, which may have a reference list of its own: not looked up in the article's list); details: intravenous, 20 mg auranofin/kg; cited from earlier work
rat lung = test system: rat lung; design: method as in ref 19 (a number printed in a supplementary file, which may have a reference list of its own: not looked up in the article's list); details: 1.5 x 10^-4M; cited from earlier work
[10] = design: method as in ref 19 (a number printed in a supplementary file, which may have a reference list of its own: not looked up in the article's list); details: rats, up to 15 mg gold/kg p.o.; cited from earlier work
human lymphocytes = test system: human lymphocytes; design: method as in ref 19 (a number printed in a supplementary file, which may have a reference list of its own: not looked up in the article's list); details: 1.25 µg auranofin/mL; cited from earlier work
[11] = after 6 months of auranofin 3 mg BID

Compound `CC(=O)OC[C@H]1O[C@@H]([S-])[C@H](OC(C)=O)[C@@H](OC(C)=O)[C@@H]1OC(C)=O.CCP(CC)CC.[Au+]` [Auranofin, auranofin] has a maximum tolerated dose ([1]; solution formulation, i.p.) of 6 mg/kg, a maximum tolerated dose ([1]; solution formulation, i.v.) of 1 mg/kg and a maximum tolerated dose ([1]; suspension, single i.p. dose) of 16 mg/kg. The “stability in plasma and whole blood ex vivo and simulated gastric fluid in vitro” value [2] was “immediately and completely dissociates”, the “mean steady state blood-gold concentration” value ([3]; 6 mg auranofin/day, n=63 patients) was 0.68 ± 0.45 µg/mL and the “labelled gold excreted by day 10” value [3, 11] was 75%. For the same compound, the “labelled gold excreted in feces by day 10” value [3, 11] was 70%, the “labelled gold excreted in the urine by day 10” value [3, 11] was 5% and the mean plasma half-life [3, 11] was 25.5 days. For the same compound, the “mean total body terminal half-life” value [3, 11] was 80.8 days, the “absorbed gold in erythrocytes / red cells” value [3] was “approximately 40%” and the “gold in blood associated with red cells” value [3] was about 40%. For the same compound, the “gold in blood associated with serum proteins” value [3] was 60%, the “gold in plasma / associated with serum proteins” value [3] was 60% and the “labelled gold excreted six months after single dose” value [3] was “approximately 99.6%”. The “labelled gold retained in the body six months after single dose” value [3] was 0.4%, the “time to steady state blood gold levels” value ([3]; clinical studies) was “about 3 months” and the “time to steady state blood-gold concentrations” value ([3]; clinical studies) was “about three m onths”. The “fraction of gold absorbed after oral administration” value ([3]; human, oral) was about 25%, the “mean terminal body half-life” value ([3]; n = 5) was 80 days and the “mean terminal plasma half-life of auranofin gold at steady state” value ([3]; n = 5) was 26 days. For the same compound, the “labelled gold excreted by day 10” value ([3]; single 6 mg oral dose) was 77%, the “labelled gold excreted in the feces by day 10” value ([3]; single 6 mg oral dose) was 73% and the “labelled gold excreted in the urine by day 10” value ([3]; single 6 mg oral dose) was 4%. The “mean plasma terminal half-life” value ([3]; single 6 mg oral dose) was 17 days, the “mean total body terminal half-life” value ([3]; single 6 mg oral dose) was 58 days and the “absorbed gold excreted in urine” value ([3]; single dose) was “About 60%”. The “administered dose excreted in urine” value ([3]; single dose) was 15%, the LD50 ([4]; Rat CD, F, PO) was 330 mg/kg and the “acute oral LD50” value ([4]; adult rats) was 265 mg/kg. The minimum lethal dose ([4]; rats) was 30 mg/kg, the “lethality (LD50) in rats when given concomitantly with other drugs” value ([4]; warfarin at usual human daily dose, clonidine, propoxyphene at five times, others at ten or twenty times) was “potentiated” and the “tumors of the renal tubular epithelium” value ([5]; 3.6 mg/kg/day) was “did not”. For the same compound, the “tumors of the renal tubular epithelium” value ([5]; 23 mg/kg/day) was “tum ors of the renal tubular epithelium; also recorded: developed adenomas of the renal tubular epithelium”, the “frequency of renal tubular cell karyomegaly and cytomegaly and renal adenoma” value ([5]; 24-month study in rats, auranofin 1.0 or 2.5 mg/kg/day orally, gold sodium thiomalate 2 or 6 mg/kg twice weekly) was “significant incr ease” and the mutation effects (Saccharomyces) was “no m utation effects”. For the same compound, the mutation effects [6] was “no m utation effects”, the “superoxide production and phagocytosis” value [7] was “inhibited” and the “activity of natural killer cells” value (natural killer cells; high concentrations, 1.0 - 2.5 µg auranofin/mL) was “inhibited”. For the same compound, the “activity of natural killer cells” value (natural killer cells; low concentrations, 0.125 - 0.5 µg auranofin/mL) was “stimulated”, the “ADCC of human monocytes” value (human monocytes) was “reduced” and the “hemagglutinating IgG antibodies to SRBC and antibodies to mouse fibroblasts” value [8] was “suppressed”. The plaque-forming cells (mouse spleen cells) was “marked inhibition”, the “48-hour passive cutaneous anaphylaxis” value [9] was “inhibition” and the “ovalbumin antigen-induced release of histamine” value (rat lung) was “inhibition”. For the same compound, the “induction of liver enzyme activity” value [10] was “failed to induce liver enzyme activity” and the “ADCC of human lymphocytes” value (human lymphocytes) was “reduced”.
